Laboratory results published in US20070117743A1, “New antitumoral compounds” (priority 2003, published 2007).
Where a SMILES comes first, the peptide text is derived from it. Bridges are numbered along the chain shown (N, C = ends). [ ]: non-standard residue; d: D form. The star is where a group is joined. d(aIle) = CC[C@H](C)[C@@H](N)C(=O)O; d(aThr) = C[C@@H](O)[C@@H](N)C(=O)O; Hexanoyl(5-Me) = CC(C)CCCC(=O)*; Orn = NCCC[C@H](N)C(=O)O; Dhb = C/C=C(\N)C(=O)O

Tests used:
Type in all cases: cell-based, human
LoVo = assay: SRB colorimetric assay of cell growth and viability, LoVo; conditions: 48 hours exposure; for CC50: read-out: LC50 LOVO
A-549 = assay: SRB colorimetric assay of cell growth and viability, A-549; conditions: 48 hours exposure; for GI50: read-out: GI50 A-549; for CC50: read-out: LC50 A-549
DU-145 = assay: SRB colorimetric assay of cell growth and viability, DU-145; conditions: 48 hours exposure
HeLa = assay: SRB colorimetric assay of cell growth and viability, HeLa; conditions: 48 hours exposure; for CC50: read-out: LC50 HELA
HT-29 = assay: SRB colorimetric assay of cell growth and viability, HT-29; conditions: 48 hours exposure; for GI50: read-out: GI50 HT-29; for CC50: read-out: LC50 HT-29
LoVo-Dox = assay: SRB colorimetric assay of cell growth and viability, LoVo-Dox; conditions: 48 hours exposure; for CC50: read-out: LC50 LOVO-DOX
How it was run: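 Cells in RPMI 1640 with 10% FBS were seeded at 5×10^3 per well and left 18 hours drug-free before compounds (10 to 10^−8 μg/mL in DMSO:EtOH:PBS 0.5:0.5:99) were added for 48 hours. TCA-fixed cells were stained with SRB and read at 490 nm; triplicate wells gave GI, TGI and LC.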

SK-BR-3 = assay: SRB colorimetric assay of cell growth and viability, SK-BR-3; conditions: 48 hours exposure
SK-MEL-28 = assay: SRB colorimetric assay of cell growth and viability, SK-MEL-28; conditions: 48 hours exposure; for CC50: read-out: LC50 MEL-28
PANC-1 = assay: SRB colorimetric assay of cell growth and viability, PANC-1; conditions: 48 hours exposure; for CC50: read-out: LC50 PANC-1
HeLa-APL = assay: SRB colorimetric assay of cell growth and viability, HeLa-APL; conditions: 48 hours exposure; for CC50: read-out: LC50 HELA-APL
K-562 = assay: SRB colorimetric assay of cell growth and viability, K-562; conditions: 48 hours exposure; for CC50: read-out: LC50 K-562
IGROV-ET = assay: SRB colorimetric assay of cell growth and viability, IGROV-ET; conditions: 48 hours exposure; for CC50: read-out: LC50 IGROV-ET
IGROV-1 = assay: SRB colorimetric assay of cell growth and viability, IGROV-1; conditions: 48 hours exposure
LNCaP = assay: SRB colorimetric assay of cell growth and viability, LNCaP; conditions: 48 hours exposure; for GI50: read-out: GI50 LN-caP; for CC50: read-out: LC50 LN-caP

C/C=C1\NC(=O)[C@H](Cc2ccccc2)NC(=O)[C@@H](C(C)C)NC(=O)[C@@H]([C@@H](C)CC)NC(=O)[C@H](NC(=O)[C@H](NC(=O)[C@H](CCCN)NC(=O)[C@H]2CCCN2C(=O)[C@H](NC(=O)[C@@H](NC(=O)[C@@H](NC(=O)[C@H](NC(=O)C(F)(F)C(F)(F)C(F)(F)C(F)(F)C(F)(F)C(F)(F)F)C(C)C)[C@@H](C)O)C(C)C)C(C)C)[C@@H](C)CC)[C@@H](C)OC(=O)[C@H](C(C)C)NC1=O [Compound 26, [Pfh^14]-KF]
GI50 (LoVo): 0.654 µM | TGI LOVO (LoVo): 1.38E−06 Molar | CC50 (LoVo): 2.99 µM | TGI A-549 (A-549): 1.48E−06 Molar | GI50 (A-549): 0.684 µM | CC50 (A-549): 3.19 µM | GI50 (DU-145): 0.596 µM | LC50 (concentration causing 50% net cell kill) (DU-145): 3.35 µM | TGI DU-145 (DU-145): 1.41E−06 Molar | GI50 (HeLa): 0.701 µM | TGI HELA (HeLa): 1.57E−06 Molar | CC50 (HeLa): 3.51 µM | TGI HT-29 (HT-29): 4.55E−07 Molar | GI50 (HT-29): 0.203 µM | CC50 (HT-29): 1.89 µM | GI50 (LoVo-Dox): 0.131 µM | TGI LOVO-DOX (LoVo-Dox): 2.52E−07 Molar | CC50 (LoVo-Dox): 0.484 µM | GI50 (SK-BR-3): 0.144 µM | LC50 (SK-BR-3): 2.18 µM | TGI SK-BR-3 (SK-BR-3): 4.92E−07 Molar | GI50 (SK-MEL-28): 0.754 µM | TGI MEL-28 (SK-MEL-28): 1.50E−06 Molar | CC50 (SK-MEL-28): 2.96 µM | GI50 (PANC-1): 2.01 µM | TGI PANC-1 (PANC-1): 5.50E−06 Molar | CC50 (PANC-1): 5.84 µM | GI50 (HeLa-APL): 0.455 µM | TGI HELA-APL (HeLa-APL): 1.33E−06 Molar | CC50 (HeLa-APL): 3.52 µM | GI50 (K-562): 1.33 µM | TGI K-562 (K-562): 2.33E−06 Molar | CC50 (K-562): 4.07 µM | GI50 (IGROV-ET): 0.199 µM | TGI IGROV-ET (IGROV-ET): 5.14E−07 Molar | CC50 (IGROV-ET): 2.04 µM | GI50 (IGROV-1): 0.648 µM | LC50 (concentration causing 50% net cell killing) (IGROV-1): 3.36 µM | TGI IGROV (IGROV-1): 1.48E−06 Molar | TGI LN-caP (LNCaP): 1.72E−06 Molar | GI50 (LNCaP): 0.9 µM | CC50 (LNCaP): 3.28 µM

C/C=C1\NC(=O)[C@H](Cc2ccccc2)NC(=O)[C@@H](C(C)C)NC(=O)[C@@H]([C@@H](C)CC)NC(=O)[C@H](NC(=O)[C@H](NC(=O)[C@H](CCCN)NC(=O)[C@H]2CCCN2C(=O)[C@H](NC(=O)[C@H](CCC(=O)O)NC(=O)[C@@H](NC(=O)[C@H](NC(=O)CCCC(C)C)C(C)C)[C@@H](C)O)C(C)C)[C@@H](C)CC)[C@@H](C)OC(=O)[C@H](C(C)C)NC1=O [Compound 51, [Glu^11]-KF] ({Hexanoyl(5-Me)}-[dV]TE[dV][dP][Orn][d(aIle)][d(aThr)][d(aIle)][dV]F[Dhb]V; ester 8-C)
GI50 (LoVo): 6.63 µM | TGI LOVO (LoVo): 6.63E−06 Molar | CC50 (LoVo): 6.63 µM | TGI A-549 (A-549): 6.63E−06 Molar | GI50 (A-549): 6.63 µM | CC50 (A-549): 6.63 µM | GI50 (DU-145): 6.63 µM | LC50 (concentration causing 50% net cell kill) (DU-145): 6.63 µM | TGI DU-145 (DU-145): 6.63E−06 Molar | GI50 (HeLa): 6.63 µM | TGI HELA (HeLa): 6.63E−06 Molar | CC50 (HeLa): 6.63 µM | TGI HT-29 (HT-29): 6.63E−06 Molar | GI50 (HT-29): 6.63 µM | CC50 (HT-29): 6.63 µM | GI50 (LoVo-Dox): 6.63 µM | TGI LOVO-DOX (LoVo-Dox): 6.63E−06 Molar | CC50 (LoVo-Dox): 6.63 µM | GI50 (SK-BR-3): 6.63 µM | LC50 (SK-BR-3): 6.63 µM | TGI SK-BR-3 (SK-BR-3): 6.63E−06 Molar | GI50 (SK-MEL-28): 6.63 µM | TGI MEL-28 (SK-MEL-28): 6.63E−06 Molar | CC50 (SK-MEL-28): 6.63 µM | GI50 (PANC-1): 6.63 µM | TGI PANC-1 (PANC-1): 6.63E−06 Molar | CC50 (PANC-1): 6.63 µM | GI50 (HeLa-APL): 6.63 µM | TGI HELA-APL (HeLa-APL): 6.63E−06 Molar | CC50 (HeLa-APL): 6.63 µM | GI50 (K-562): 6.63 µM | TGI K-562 (K-562): 6.63E−06 Molar | CC50 (K-562): 6.63 µM | GI50 (IGROV-ET): 6.63 µM | TGI IGROV-ET (IGROV-ET): 6.63E−06 Molar | CC50 (IGROV-ET): 6.63 µM | GI50 (IGROV-1): 6.63 µM | LC50 (concentration causing 50% net cell killing) (IGROV-1): 6.63 µM | TGI IGROV (IGROV-1): 6.63E−06 Molar | TGI LN-caP (LNCaP): 6.63E−06 Molar | GI50 (LNCaP): 6.63 µM | CC50 (LNCaP): 6.63 µM

C/C=C1\NC(=O)[C@H](Cc2ccccc2)NC(=O)[C@@H](C(C)C)NC(=O)[C@@H]([C@@H](C)CC)NC(=O)[C@H](NC(=O)[C@H](NC(=O)[C@H](CCCN)NC(=O)[C@H]2CCCN2C(=O)[C@H](NC(=O)[C@@H](NC(=O)[C@@H](NC(=O)[C@H](NC(=O)CC[C@H](C)CC)C(C)C)[C@@H](C)O)C(C)C)C(C)C)[C@@H](C)CC)[C@@H](C)OC(=O)[C@H](C(C)C)NC1=O [Compound 16, [(4R)-MeHex^14]-KF]
GI50 (LoVo): 0.248 µM | TGI LOVO (LoVo): 7.78E−07 Molar | CC50 (LoVo): 2.28 µM | TGI A-549 (A-549): 2.26E−06 Molar | GI50 (A-549): 1.2 µM | CC50 (A-549): 4.24 µM | GI50 (DU-145): 1.2 µM | LC50 (concentration causing 50% net cell kill) (DU-145): 3.82 µM | TGI DU-145 (DU-145): 2.14E−06 Molar | GI50 (HeLa): 1.05 µM | TGI HELA (HeLa): 1.93E−06 Molar | CC50 (HeLa): 3.55 µM | TGI HT-29 (HT-29): 1.54E−06 Molar | GI50 (HT-29): 0.738 µM | CC50 (HT-29): 3.22 µM | GI50 (LoVo-Dox): 0.288 µM | TGI LOVO-DOX (LoVo-Dox): 7.71E−07 Molar | CC50 (LoVo-Dox): 2.19 µM | GI50 (SK-BR-3): 1.25 µM | LC50 (SK-BR-3): 3.86 µM | TGI SK-BR-3 (SK-BR-3): 2.20E−06 Molar | GI50 (SK-MEL-28): 1.14 µM | TGI MEL-28 (SK-MEL-28): 2.09E−06 Molar | CC50 (SK-MEL-28): 3.8 µM | GI50 (PANC-1): 4.7 µM | TGI PANC-1 (PANC-1): 4.24E−06 Molar | CC50 (PANC-1): 4.24 µM | GI50 (HeLa-APL): 1.56 µM | TGI HELA-APL (HeLa-APL): 3.47E−06 Molar | CC50 (HeLa-APL): ≥ 6.77 µM | GI50 (K-562): 3.73 µM | TGI K-562 (K-562): 6.77E−06 Molar | CC50 (K-562): ≥ 6.77 µM | GI50 (IGROV-ET): 0.805 µM | TGI IGROV-ET (IGROV-ET): 1.62E−06 Molar | CC50 (IGROV-ET): 3.26 µM | GI50 (IGROV-1): 0.941 µM | LC50 (concentration causing 50% net cell killing) (IGROV-1): 3.5 µM | TGI IGROV (IGROV-1): 1.81E−06 Molar | TGI LN-caP (LNCaP): 2.46E−06 Molar | GI50 (LNCaP): 1.5 µM | CC50 (LNCaP): 4.04 µM
